Columns and labels:
Settings in all cases: ATP=10 uM, sample concentration=100 nM
[1] = molecular target: T1, PI3 Kinase (p110δ/p85α) (h) (Homo sapiens, UniProt O00329); assay: Inhibition of phosphatidylinositol 3-kinase delta (PI3K δ), pAkt Western blotting in IgM-stimulated Raji cells; format: cell-based
T1 construct: endogenous in cells; host or cells: Raji
Method in brief: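 Raji cells were treated with compound for 1.5 h, then stimulated with 0.25 μg/mL IgM for 30 min to activate PI3Kδ. Lysates were Western blotted for pAkt (Ser473 or Thr308) with ECL detection. Conditions stated: ATP=10 uM, sample concentration=100 nM.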

PI3 Kinase (p120γ) (h) = molecular target: T2, PI3 Kinase (p120γ) (h) (Homo sapiens, UniProt P48736); assay: Inhibition of phosphatidylinositol 3-kinase gamma (PI3K γ), pAkt Western blotting in C5a-stimulated RAW264.7 macrophages; format: cell-based, mouse
T2 construct: endogenous in cells; host or cells: RAW264.7
T2 sequence (P48736 whole entry): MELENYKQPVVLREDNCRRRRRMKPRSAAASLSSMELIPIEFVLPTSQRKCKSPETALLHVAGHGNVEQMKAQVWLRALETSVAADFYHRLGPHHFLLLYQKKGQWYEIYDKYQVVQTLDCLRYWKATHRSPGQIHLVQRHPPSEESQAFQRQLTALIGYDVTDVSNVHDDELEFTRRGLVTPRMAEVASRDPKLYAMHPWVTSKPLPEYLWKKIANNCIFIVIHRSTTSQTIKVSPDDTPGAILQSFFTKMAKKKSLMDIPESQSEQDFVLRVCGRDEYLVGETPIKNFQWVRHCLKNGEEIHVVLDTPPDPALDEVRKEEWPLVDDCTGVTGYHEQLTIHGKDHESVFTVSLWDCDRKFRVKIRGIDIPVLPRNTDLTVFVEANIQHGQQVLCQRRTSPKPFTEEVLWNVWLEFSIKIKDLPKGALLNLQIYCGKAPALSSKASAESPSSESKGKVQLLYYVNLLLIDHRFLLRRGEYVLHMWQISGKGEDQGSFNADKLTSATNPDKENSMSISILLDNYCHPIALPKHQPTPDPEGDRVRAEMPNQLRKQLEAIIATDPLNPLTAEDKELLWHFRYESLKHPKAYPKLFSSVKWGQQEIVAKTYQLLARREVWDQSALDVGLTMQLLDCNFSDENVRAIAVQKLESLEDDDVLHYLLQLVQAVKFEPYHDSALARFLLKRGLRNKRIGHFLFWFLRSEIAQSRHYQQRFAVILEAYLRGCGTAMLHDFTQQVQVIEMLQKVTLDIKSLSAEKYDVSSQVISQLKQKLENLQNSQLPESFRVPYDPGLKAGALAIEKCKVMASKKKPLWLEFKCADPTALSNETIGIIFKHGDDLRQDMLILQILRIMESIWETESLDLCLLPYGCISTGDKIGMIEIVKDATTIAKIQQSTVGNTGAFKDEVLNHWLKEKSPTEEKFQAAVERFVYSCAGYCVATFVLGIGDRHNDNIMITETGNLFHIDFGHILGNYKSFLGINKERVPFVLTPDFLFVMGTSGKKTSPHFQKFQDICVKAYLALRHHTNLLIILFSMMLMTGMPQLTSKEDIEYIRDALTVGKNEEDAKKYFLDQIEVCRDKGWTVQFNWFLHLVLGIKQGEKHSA
Method in brief: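 Enzyme: PI3Kγ activity measured at ATP=10 uM with compound at 100 nM. Cellular: RAW264.7 macrophages treated with compound 1.5 h, then stimulated with 10 ng/mL C5a for 5 min; lysates (10 μg protein) probed by Western blot for pAkt (Ser473 or Thr308), ECL detection.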

[2] = molecular target: T3, PI3 Kinase (p110α/p85α) (h) (Homo sapiens, UniProt P42336); assay: Inhibition of phosphatidylinositol 3-kinase alpha (PI3K α), pAkt Western blotting in EGF-stimulated MDA-MB-453 cells; format: cell-based
T3 construct: endogenous in cells; host or cells: MDA-MB-453
T3 sequence (P42336 whole entry): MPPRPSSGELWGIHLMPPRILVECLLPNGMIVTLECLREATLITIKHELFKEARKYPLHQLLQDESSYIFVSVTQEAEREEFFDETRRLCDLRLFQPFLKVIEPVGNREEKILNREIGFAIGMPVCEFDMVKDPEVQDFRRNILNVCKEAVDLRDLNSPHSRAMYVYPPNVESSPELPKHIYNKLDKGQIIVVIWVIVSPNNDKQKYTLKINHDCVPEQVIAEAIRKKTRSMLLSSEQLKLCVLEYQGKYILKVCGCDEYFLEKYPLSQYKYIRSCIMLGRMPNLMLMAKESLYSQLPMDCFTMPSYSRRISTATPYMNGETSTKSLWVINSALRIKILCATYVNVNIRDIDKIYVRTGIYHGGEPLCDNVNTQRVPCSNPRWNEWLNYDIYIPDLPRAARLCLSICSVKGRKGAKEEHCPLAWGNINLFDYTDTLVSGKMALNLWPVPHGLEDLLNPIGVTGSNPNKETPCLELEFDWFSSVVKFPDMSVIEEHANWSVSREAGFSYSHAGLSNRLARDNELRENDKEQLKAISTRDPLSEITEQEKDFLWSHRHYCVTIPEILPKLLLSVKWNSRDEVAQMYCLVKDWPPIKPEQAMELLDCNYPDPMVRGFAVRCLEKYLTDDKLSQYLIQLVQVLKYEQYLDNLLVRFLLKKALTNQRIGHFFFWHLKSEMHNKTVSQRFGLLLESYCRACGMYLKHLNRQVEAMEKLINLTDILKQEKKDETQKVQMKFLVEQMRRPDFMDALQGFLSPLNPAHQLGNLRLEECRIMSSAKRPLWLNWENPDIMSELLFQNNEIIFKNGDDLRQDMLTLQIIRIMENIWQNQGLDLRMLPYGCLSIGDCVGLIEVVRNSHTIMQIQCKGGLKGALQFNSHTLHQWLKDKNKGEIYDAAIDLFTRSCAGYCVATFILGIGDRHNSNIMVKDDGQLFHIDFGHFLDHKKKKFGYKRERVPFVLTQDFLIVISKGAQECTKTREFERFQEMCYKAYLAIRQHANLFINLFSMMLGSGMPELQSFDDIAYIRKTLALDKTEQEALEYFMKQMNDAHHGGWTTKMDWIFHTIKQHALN
T3 sequence (P27986 2-724 partner limits assumed): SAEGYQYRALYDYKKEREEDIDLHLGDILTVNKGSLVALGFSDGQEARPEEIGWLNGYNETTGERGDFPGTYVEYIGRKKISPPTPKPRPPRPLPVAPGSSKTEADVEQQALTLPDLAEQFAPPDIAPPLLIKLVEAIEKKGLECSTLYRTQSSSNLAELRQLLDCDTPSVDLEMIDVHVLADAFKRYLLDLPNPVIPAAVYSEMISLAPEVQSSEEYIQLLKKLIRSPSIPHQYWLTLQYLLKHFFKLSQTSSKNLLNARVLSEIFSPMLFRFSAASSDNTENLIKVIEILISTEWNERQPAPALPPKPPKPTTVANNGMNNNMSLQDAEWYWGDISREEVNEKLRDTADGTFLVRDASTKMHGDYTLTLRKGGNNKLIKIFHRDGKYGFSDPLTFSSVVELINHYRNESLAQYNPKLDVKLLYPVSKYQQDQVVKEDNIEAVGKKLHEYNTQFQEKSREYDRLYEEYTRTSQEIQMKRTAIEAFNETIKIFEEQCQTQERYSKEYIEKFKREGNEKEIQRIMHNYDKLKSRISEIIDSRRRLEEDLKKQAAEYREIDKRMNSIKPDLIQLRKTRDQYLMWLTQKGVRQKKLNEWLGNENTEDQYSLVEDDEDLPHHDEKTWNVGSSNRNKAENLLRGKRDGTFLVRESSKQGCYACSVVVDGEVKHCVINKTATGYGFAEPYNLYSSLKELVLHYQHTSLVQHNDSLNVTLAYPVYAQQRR
Procedure: The inhibition of phosphatidylinositol 3 kinase alpha (PI3K α) by those compounds prepared in Examples 1˜98 was investigated by the following experiment. The inhibition activity of each compound was measured in the following conditions: ATP=10 uM, and sample concentration=100 nM.
Human breast cancer cells (MDA-MB-453) cultured in DMEM (Dulbecco's Modified Eagle Medium, Hyclon, SH30243.01) supplemented with 10% fetal bovine serum (Hyclon, USA) were distributed in a 12-well plate at the density of 1,000,000 cells/well. The cells were stabilized in a 37° C. CO2 for 24 hours and then treated with each compound for 1 and half hours. The cells were treated with 10 ng/mL of EGF (Epidermal Growth Factor, 10 μg/mL; R&D, 2150-C5) to increase the intracellular activity of PI3K alpha. 5 minutes later, the medium was discarded and the cells were washed with cold PBS (phosphate buffered saline, Gibco, 14190-250). PBS was then eliminated completely by using a pipette. Western blotting was performed as described in step 2 to evaluate the intracellular PI3K alpha activity.
(§1) The stimulated cells were transferred in a 1.5 mL tube, followed by centrifugation at 3000 rpm for 1 minute. 100 μL of RIPA buffer (radioimmunoprecipitation assay buffer, 50 mM Tris-HCl, 5 mM EDTA, 150 mM NaCl, 1% NP-40, 1 mM PMSF, pH 8.0; ELPIS, Korea) was added thereto, which was stored in a 4° C. refrigerator for 12 hours. Centrifugation was performed at 4° C. at 14,000 rpm for 20 minutes. The supernatant was transferred into a new 1.5 mL tube. Protein was quantified by BCA (bicinchoninic acid) method and samples were prepared. The composition of the sample was as follows: sample buffer (ELPIS, EBA-1052) 5×, protein 10 μg, and 1× sample buffer to make the total volume 20 μL. The sample was heated at 100° C. for 5 minutes. The evaporated water vapor was condensed in a refrigerator. The liquid stained on the wall was fallen down by centrifugation for a few seconds. The sample proceeded to 10% SDS (Sodium Dodecyl Sulfate) acrylamide gel for separation. The separated protein was transferred onto PVDF (poly-vinyl difluoride) membrane, followed by reaction with pAkt (phospho protein kinase B) antibody (Ser473 or Thr308; Cell signaling, 9271s or 13038s) for 12 hours at 4° C. The membrane was washed with TBST (Tris-Buffered Saline with Tween 20, 10 mM Tris-HCl, pH 7.5, 150 mM NaCl, 0.1% Tween-20) three times for 5 minutes each, to which the secondary antibody (rabbit antibody, Santacruz, sc-2004) was added, followed by reaction at room temperature for 2 hours. The membrane was washed with TBST three times for 10 minutes each, to which ECL (enhanced chemiluminescence, Thermo, NCI34095KR) was sprayed. Bands were investigated by using LAS-3000.

[3] = molecular target: T4, PI3 Kinase (p110β/p86α) (h) (Homo sapiens, UniProt P42338); assay: Inhibition of phosphatidylinositol 3-kinase beta (PI3K β), pAkt Western blotting in LPA-stimulated PC3 cells; format: cell-based
T4 construct: endogenous in cells; host or cells: PC3
T4 sequence (P42338 whole entry): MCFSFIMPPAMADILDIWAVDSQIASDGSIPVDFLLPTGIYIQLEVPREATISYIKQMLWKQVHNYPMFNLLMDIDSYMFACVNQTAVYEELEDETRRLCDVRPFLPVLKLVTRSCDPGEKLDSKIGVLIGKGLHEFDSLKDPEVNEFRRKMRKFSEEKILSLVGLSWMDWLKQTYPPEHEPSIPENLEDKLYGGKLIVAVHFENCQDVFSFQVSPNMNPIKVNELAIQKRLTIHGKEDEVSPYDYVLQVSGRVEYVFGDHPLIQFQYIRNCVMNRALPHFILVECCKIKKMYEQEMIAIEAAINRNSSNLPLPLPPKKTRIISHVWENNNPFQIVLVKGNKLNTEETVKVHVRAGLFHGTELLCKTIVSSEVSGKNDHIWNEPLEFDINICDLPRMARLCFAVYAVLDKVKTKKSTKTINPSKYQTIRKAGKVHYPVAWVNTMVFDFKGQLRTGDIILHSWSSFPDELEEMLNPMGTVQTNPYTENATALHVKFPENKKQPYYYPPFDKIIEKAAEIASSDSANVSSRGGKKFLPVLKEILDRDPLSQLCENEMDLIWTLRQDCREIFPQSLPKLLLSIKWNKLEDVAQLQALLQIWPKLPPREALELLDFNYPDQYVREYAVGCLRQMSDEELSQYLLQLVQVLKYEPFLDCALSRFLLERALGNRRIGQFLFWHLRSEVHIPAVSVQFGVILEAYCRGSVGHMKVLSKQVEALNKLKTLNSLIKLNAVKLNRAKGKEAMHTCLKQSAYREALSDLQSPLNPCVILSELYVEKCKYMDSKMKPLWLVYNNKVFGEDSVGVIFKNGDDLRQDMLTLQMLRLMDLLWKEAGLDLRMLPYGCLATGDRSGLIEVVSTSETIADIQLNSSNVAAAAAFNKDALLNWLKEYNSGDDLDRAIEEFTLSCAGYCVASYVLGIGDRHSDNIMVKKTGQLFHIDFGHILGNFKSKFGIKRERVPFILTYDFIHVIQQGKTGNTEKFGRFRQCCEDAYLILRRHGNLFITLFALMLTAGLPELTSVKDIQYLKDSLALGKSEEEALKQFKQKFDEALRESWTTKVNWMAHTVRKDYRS
T4 sequence (P27986 whole entry partner): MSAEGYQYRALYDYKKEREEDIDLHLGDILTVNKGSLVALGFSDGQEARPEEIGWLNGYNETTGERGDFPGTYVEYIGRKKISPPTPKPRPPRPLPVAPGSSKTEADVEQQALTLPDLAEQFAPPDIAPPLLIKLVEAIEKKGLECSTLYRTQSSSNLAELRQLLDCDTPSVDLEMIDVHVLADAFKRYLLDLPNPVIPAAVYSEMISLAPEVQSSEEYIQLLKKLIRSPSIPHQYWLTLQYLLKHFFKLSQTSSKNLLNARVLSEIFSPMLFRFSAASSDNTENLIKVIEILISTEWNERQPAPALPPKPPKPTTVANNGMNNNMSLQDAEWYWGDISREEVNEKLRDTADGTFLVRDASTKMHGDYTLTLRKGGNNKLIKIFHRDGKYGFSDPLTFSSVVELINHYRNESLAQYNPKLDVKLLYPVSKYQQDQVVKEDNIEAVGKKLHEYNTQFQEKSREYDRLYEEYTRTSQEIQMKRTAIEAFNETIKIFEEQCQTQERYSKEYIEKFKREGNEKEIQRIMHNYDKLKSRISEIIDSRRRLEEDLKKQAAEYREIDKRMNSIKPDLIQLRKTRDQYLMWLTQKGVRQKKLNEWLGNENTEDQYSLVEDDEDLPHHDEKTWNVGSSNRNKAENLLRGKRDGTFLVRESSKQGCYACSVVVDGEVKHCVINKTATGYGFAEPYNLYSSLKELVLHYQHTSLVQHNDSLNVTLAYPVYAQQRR
Procedure: as §1
The inhibition of phosphatidylinositol 3 kinase beta (PI3K β) by those compounds prepared in Examples 1˜98 was investigated by the following experiment. The inhibition activity of each compound was measured in the following conditions: ATP=10 uM, and sample concentration=100 nM.
Human prostate cancer cells (PC3 cells) cultured in DMEM (Dulbecco's Modified Eagle Medium, Hyclon, SH30243.01) supplemented with 10% fetal bovine serum (Hyclon, USA) were distributed in a 12-well plate at the density of 1,000,000 cells/well. The cells were stabilized in a 37° C. CO2 for 24 hours and then treated with each compound for 1 and half hours. The cells were treated with 10 ng/mL of LPA (lysophosphatidic acid, 10 μg/mL; R&D, 2150-05) to increase the intracellular activity of PI3K beta. 5 minutes later, the medium was discarded and the cells were washed with cold PBS (phosphate buffered saline, Gibco, 14190-250). PBS was then eliminated completely by using a pipette. Western blotting was performed according to the same manner as described in step 2 of Experimental Example 1 to evaluate the intracellular PI3K beta activity.

SMILES	IC50 [1] [µM]	IC50 (PI3 Kinase (p120γ) (h)) [µM]	IC50 [2] [µM]	IC50 [3] [µM]
C[C@H](Nc1ncnc2[nH]ccc(=O)c12)c1nc2cccc(Cl)c2c(=O)n1-c1ccccc1 [Example 1, (S)-4-((1-(5-chloro-4-oxo-3-phenyl-3,4-dihydroquinazoline-2-yl)ethyl)amino)pyrido[2,3-d]pyrimidine-5(8H)-one]	< 0.01	0.01 to 0.5	> 0.5	0.01 to 0.5
C[C@H](Nc1ncnc2[nH]ccc(=O)c12)c1nc2cccc(Cl)c2c(=O)n1-c1cccnc1 [Example 2, (S)-4-((1-(5-chloro-4-oxo-3-(pyridine-3-yl)-3,4-dihydroquinazoline-2-yl)ethyl)amino)pyrido[2,3-d]pyrimidine-5(8H)-one]	< 0.01	0.01 to 0.5	> 0.5	> 0.5
C[C@H](Nc1ncnc2[nH]ccc(=O)c12)c1nc2cccc(Cl)c2c(=O)n1-c1ccccn1 [Example 3, (S)-4-((1-(5-chloro-4-oxo-3-(pyridine-2-yl)-3,4-dihydroquinazoline-2-yl)ethyl)amino)pyrido[2,3-d]pyrimidine-5(8H)-one]	< 0.01	0.01 to 0.5	> 0.5	> 0.5
C[C@H](Nc1ncnc2[nH]ccc(=O)c12)c1nc2cccc(Cl)c2c(=O)n1-c1cc(F)cc(F)c1 [Example 4, (S)-4-((1-(5-chloro-3-(3,5-difluorophenyl)-4-oxo-3,4-dihydroquinazoline-2-yl)ethyl)amino)pyrido[2,3-d]pyrimidine-5(8H)-one]	< 0.01	0.01 to 0.5	> 0.5	> 0.5
C[C@H](Nc1ncnc2[nH]ccc(=O)c12)c1cc2cccc(Cl)c2c(=O)n1-c1ccccc1 [Example 5, (S)-4-((1-(8-chloro-1-oxo-2-phenyl-1,2-dihydroisoquinoline-3-yl)ethyl)amino)pyrido[2,3-d]pyrimidine-5(8H)-one]	< 0.01	0.01 to 0.5	> 0.5	0.01 to 0.5
C[C@H](Nc1ncnc2[nH]ccc(=O)c12)c1cc2ccccc2nc1-c1ccccc1 [Example 6, (S)-4-((1-(2-phenylquinoline-3-yl)ethyl)amino)pyrido[2,3-d]pyrimidine-5(8H)-one]	< 0.01	0.01 to 0.5	> 0.5	> 0.5
CC(Nc1ncnc2[nH]ccc(=O)c12)c1nc2ccc(F)cc2cc1-c1ccccn1 (centres unmarked) [Example 7, 4-((1-(6-fluoro-3-(pyridine-2-yl)quinoline-2-yl)ethyl)amino)pyrido[2,3-d]pyrimidine-5(8H)-one]	< 0.01	> 0.5	> 0.5	> 0.5
C[C@H](Nc1ncnc2[nH]ccc(=O)c12)c1nc2ccc(F)cc2cc1-c1ccccn1 [Example 7-1, (S)-4-((1-(6-fluoro-3-(pyridine-2-yl)quinoline-2-yl)ethyl)amino)pyrido[2,3-d]pyrimidine-5(8H)-one]	0.01 to 0.5	> 0.5	> 0.5	> 0.5
C[C@H](Nc1ncnc2[nH]ccc(=O)c12)c1cc2ccc(F)cc2nc1-c1cccc(F)c1 [Example 8, (S)-4-((1-(7-fluoro-2-(3-fluorophenyl)quinoline-3-yl)ethyl)amino)pyrido[2,3-d]pyrimidine-5(8H)-one]	< 0.01	0.01 to 0.5	> 0.5	> 0.5
C[C@H](Nc1ncnc2[nH]ccc(=O)c12)c1cc2ccc(F)cc2nc1-c1ccccn1 [Example 9, (S)-4-(1-(7-fluoro-2-(pyridine-2-yl)quinoline-3-yl)ethylamino)pyrido[2,3-d]pyrimidine-5(8H)-one]	< 0.01	0.01 to 0.5	> 0.5	> 0.5
C[C@H](Nc1ncnc2[nH]ccc(=O)c12)c1c(Cl)c2cccc(Cl)c2c(=O)n1-c1ccccc1 [Example 10, (S)-4-((1-(4,8-dichloro-1-oxo-2-phenyl-1,2-dihydroisoquinoline-3-yl)ethyl)amino)pyrido[2,3-d]pyrimidine-5(8H)-one]	< 0.01	0.01 to 0.5	> 0.5	> 0.5
C[C@H](Nc1ncnc2[nH]ccc(=O)c12)c1c(F)c2cccc(Cl)c2c(=O)n1-c1ccccc1 [Example 11, (S)-4-((1-(8-chloro-4-fluoro-1-oxo-2-phenyl-1,2-dihydroisoquinoline-3-yl)ethyl)amino)pyrido[2,3-d]pyrimidine-5(8H)-one]	< 0.01	0.01 to 0.5	> 0.5	> 0.5
CC[C@H](Nc1ncnc2[nH]ccc(=O)c12)c1nc2cccc(F)c2c(=O)n1-c1ccccc1 [Example 12, (S)-4-((1-(5-fluoro-4-oxo-3-phenyl-3,4-dihydroquinazoline-2-yl)propyl)amino)pyrido[2,3-d]pyrimidine-5(8H)-one]	< 0.01	0.01 to 0.5	> 0.5	> 0.5
O=c1cc[nH]c2ncnc(N3CCC[C@H]3c3nc4cccc(Cl)c4c(=O)n3-c3ccccc3)c12 [Example 13, (S)-4-(2-(5-chloro-4-oxo-3-phenyl-3,4-dihydroquinazoline-2-yl)pyrrolidine-1-yl)pyrido[2,3-d]pyrimidine-5(8H)-one]	< 0.01	0.01 to 0.5	> 0.5	> 0.5
O=c1cc[nH]c2ncnc(N3CCC[C@H]3c3cc4cccc(Cl)c4c(=O)n3-c3ccccc3)c12 [Example 14, (S)-4-(2-(8-chloro-1-oxo-2-phenyl-1,2-dihydroisoquinoline-3-yl)pyrrolidine-1-yl)pyrido[2,3-d]pyrimidine-5(8H)-one]	0.01 to 0.5	0.01 to 0.5	> 0.5	> 0.5
C[C@H](Nc1nc(N)nc2[nH]ccc(=O)c12)c1cc2cccc(Cl)c2c(=O)n1-c1ccccc1 [Example 15, (S)-2-amino-4-((1-(8-chloro-1-oxo-2-phenyl-1,2-dihydroisoquinoline-3-yl)ethyl)amino)pyrido[2,3-d]pyrimidine-5(8H)-one]	< 0.01	0.01 to 0.5	0.01 to 0.5	0.01 to 0.5
Nc1nc(N2CCC[C@H]2c2cc3cccc(Cl)c3c(=O)n2-c2ccccc2)c2c(=O)cc[nH]c2n1 [Example 16, (S)-2-amino-4-(2-(8-chloro-1-oxo-2-phenyl-1,2-dihydroisoquinoline-3-yl)pyrrolidine-1-yl)pyrido[2,3-d]pyrimidine-5(8H)-one]	0.01 to 0.5	0.01 to 0.5	> 0.5	> 0.5

Source: patent publication US10526337B2, “Heteroaryl derivative or pharmaceutically acceptable salt thereof, preparation method therefor, and pharmaceutical composition for preventing or treating diseases associated with PI3 kinases, containing same as active ingredient” (KOREA RESEARCH INSTITUTE OF CHEMICAL TECHNOLOGY, priority 2015, dated 2020)
